Source: patent US20060127329A1, “Tartar control oral care composition containing extract of magnolia” (Colgate-Palmolive Company, priority 2004, published 2006)

These compounds were tested on representative oral bacteria S. mutans, F. nucleatum, V. parvula, A. naslundii, P. gingivitis (assay: in vitro test Minimal Inhibitory Concentration (MIC)). Details: no numbers given.
Format: cell-based
Source text: The compositions of the present invention comprise at least one active compound found in an extract of magnolia. As referred to here, such an “extract” of magnolia is an extract from dried cortex, or bark, of a plant from the Magnoliaceae family, such as Magnolia officinalis, (hereinafter “magnolia”) or a synthetic or semi-synthetic equivalent of such an extract or an active component thereof. […] In other embodiments, the antibacterial ingredient comprises an extract of magnolia. […] It should be noted that any plant from the Magnoliaceae family is suitable for the present invention and may be used in alternate embodiments, preferably such that the extract comprises an antimicrobially effective concentration of a compound selected from the group consisting of magnolol, honokiol, tetrahydromagnolol, tetrahydrohonokiol, and mixtures thereof.

SMILES | bactericidal properties against representative oral bacteria
CCCc1ccc(O)c(-c2cc(CCC)ccc2O)c1 [tetrahydromagnolol] | demonstrated bactericidal properties
CCCc1ccc(O)c(-c2ccc(O)c(CCC)c2)c1 [tetrahydrohonokiol] | demonstrated bactericidal properties
C=CCc1ccc(O)c(-c2ccc(O)c(CC=C)c2)c1 [honokiol] | demonstrated bactericidal properties
C=CCc1ccc(O)c(-c2cc(CC=C)ccc2O)c1 [magnolol] | demonstrated bactericidal properties
